The compound `CCOP(=O)(OCC)c1cc2cc(S(=O)(=O)Cl)c(Cl)cc2[nH]c1=O` displayed a melting point of 190 to 200 °C.
Take `CC1CCN(S(=O)(=O)c2cc(C#N)ccc2Oc2cc(Cl)ccc2Cl)CC1`: the melting point is 127 to 130 °C.
For `Cc1cc(Br)cnc1CCCCc1cc(N)cc2c1C(N)=NS2(=O)=O` the value was 276 to 279 °C; for `O=C(CCCl)c1cc2c(s1)CCCC2`, 51 to 53 °C.
As to `O=C1CSc2cc(-c3cccc([N+](=O)[O-])c3)ccc2N1`, the melting point lay within 290 to 292 °C.
Compound `COc1cccc(Cc2nnc(SC)[nH]c2=O)c1` displayed a melting point of 185 to 186 °C.
Turning to `CC[C@@H](C)[C@H](N)C(O)(c1ccccc1)c1ccccc1`, the melting point lay in the range of 128 to 129 °C.
Compound `CC(=O)CNC(=O)c1ccccc1C` showed a melting point of 65 to 66 °C.
`CCCCCCc1cc2c(=O)c(-c3ccc(OC)cc3)coc2cc1O` showed a melting point of 188 °C.
The compound `COc1ccc(CC(=O)O)c(C(C)=O)c1` returned a melting point of 115 to 116 °C.
In turn, `O=C(O)C(Cc1ccccc1)NCc1ccccc1` (stereo unspecified) had a melting point of 219 to 220 °C.
Take `Cn1nc(C(F)(F)F)c(C(=O)O)c1F`: the melting point was 165 to 166 °C.
With `C#CCNC1=NS(=O)(=O)N=C1NCCSCc1csc(NC(=N)N)n1`, the melting point was in the range of 176 to 178 °C.
`COc1ccc(C(=O)c2ccc(OCC(=O)O)c(Cl)c2Cl)cc1` gave a melting point of 158 to 159 °C.
With `CC(=O)C(=Cc1ccc(O)c(C(=O)O)c1)C(C)=O` the figure was 112 to 114 °C.
The compound `CCN(CC)CCCNC(=S)N(CCS(=O)(=O)c1ccccc1)C(C)C` had a melting point of 120 to 121 °C.
`OCc1cc(Br)cc(I)c1`: the melting point is 110 to 112 °C.
Regarding `CC(=O)c1ccccc1Nc1nc(Nc2ccc3c(c2)CCCC(=O)N3C)ncc1Cl`, the melting point is 215 to 217 °C.
With `CN1CCc2[nH]c3ccc4sccc4c3c2C1` the figure was 189 °C.
In turn, `CN1C(=O)C2CN(Cc3ccncc3)CCN2c2ccccc21` (stereo unspecified) had a melting point of 252 to 254 °C.
Compound `Nc1ccccc1OCc1ccc2ccccc2n1` gave a melting point of 62 to 64 °C.
`COc1cc(N)c([N+](=O)[O-])cc1I` had a melting point of 189 °C.
`CCCc1c(C(C)=NO)c2ccc(C(N)=O)cc2n1Cc1ccccc1Cl`: the melting point fell in the range of 212 to 216 °C.
`CC1(C)COC(=O)N1c1nc(-c2ccccc2)cs1` showed a melting point of 94 to 97 °C.
`O=c1c(-c2ccc(F)cc2)c(-c2ccc(S(=O)(=O)C(F)(F)F)cc2)cnn1Cc1ccccc1` yielded a melting point of 80 to 115 °C.
The compound `CCCCCCCCS(=O)(=O)Nc1cc(C(=O)Nc2ccccc2)ccc1OC` showed a melting point of 154 to 155 °C.
The compound `COC(=O)c1ccc2oc3c(c(=O)c2c1)CCC3=Cc1ccccn1` displayed a melting point of 250 to 252 °C.
With `CC(C)NCCCCCOc1ccc(O)cc1` the figure was 95 to 99 °C.
In turn, `Cc1ccc2nc(S)sc2c1` had a melting point of 179 to 181 °C.
With `CC(C)(O)CCn1c2ccccc2c2cc(NC(=O)c3ccccc3Cl)ccc21` the figure was 120 to 124 °C; with `COC(=O)C1=C(C)NN=C(C(=O)OC2CCCC2)C1c1ccccc1Cl` (stereo unspecified), 152 °C; with `COC(=O)c1ccc(CBr)c(NC(=O)c2ccc(C(C)(C)C)cc2C(=O)OC(C)(C)C)c1`, 135 °C.
`O=c1[nH]c(Nc2ccccc2)nc2c1ncn2CC(O)CO` (stereo unspecified) gave a melting point of 312 to 315 °C.
With `CCN1C[C@@H](O)[C@H](NC2CCCCC2)C1` (relative stereo) the figure was 68 to 71 °C.
The compound `CCC1C(C)=NN=C(c2ccccc2Cl)c2cc(OC)c(OC)cc21` (stereo unspecified) came in with a melting point of 129 to 131 °C.
For `CC1NC(=O)CC2(C)CC1c1ccccc1O2` (stereo unspecified) the value was 164 °C.
As for `COc1ccc(-c2sc3cc(OC)ccc3c2C(=O)c2cc(OC)cc(OC)c2)cc1`, the melting point fell in the range of 114 to 120 °C.
`CCC(O)(CC)c1cc(Cl)ccc1O` registered a melting point of 76 °C.
With `O=C1c2ccccc2-c2[nH]c(=O)cnc21`, the melting point was more than 300 °C.
On to `COc1ccc(-c2nc(Sc3cccc(OC)c3)[nH]c2-c2ccc(OC)cc2)cc1`, for which the melting point was 101 °C.
With `CC(C)CC1(C(CCN2C(=O)c3cc(Cl)c(Cl)cc3C2=O)C(=O)NO)CCN(CCc2ccccc2)C1=O` (stereo unspecified) the figure was 207 to 208 °C; with `CCCOc1ccc(C)cc1C(=N)OCC`, 148 to 150 °C; with `CC1Nc2ccc(-c3cccc(F)c3)cc2C(C)(C)O1` (stereo unspecified), 139 to 140 °C.
In the case of `CN1CCN(C)CC(OC(=O)c2n[nH]c3ccccc23)C1`, the melting point lay in the range of 184 to 185 °C.
For `CS(=O)(=O)c1ccc(C2=C(c3ccc(F)cc3)C(=O)N(C3CC3)C2)cc1` the value was 170 to 172 °C.
Compound `COc1ccc(S(=O)(=O)N2c3ccccc3-c3ccccc3C2C)cc1C` (stereo unspecified) gave a melting point of 171 to 173 °C.
Take `O=C1COC(C#Cc2ccccc2)(C(F)(F)F)c2cc(Cl)ccc2N1` (stereo unspecified): the melting point was 190 to 191 °C.
For `Clc1ccc(CSC(Cn2ccnc2)C23CC4CC(CC(C4)C2)C3)cc1` (stereo unspecified) the value was 157 to 160 °C.
For `CC1(C)SC(C)(C)N(C(=O)COc2ccc(Cl)cc2)C1C(=O)O` (stereo unspecified), the melting point was in the range of 146 to 147 °C.
Take `CCCCCCCCCCCCCCCC(=O)C1(O)OC(COCc2ccccc2)C(OCc2ccccc2)C(OCc2ccccc2)C1OCc1ccccc1` (stereo unspecified): the melting point was 52 to 53 °C.
For `Cc1ccc(I)cc1O`, the melting point was determined as 60 °C.
The compound `O[C@@H](CNCCOc1ccc2oc(-c3noc(C(F)(F)F)n3)cc2c1)COc1ccccc1Cl` had a melting point of 112 to 115 °C.
Compound `CCCCc1ccc(C(=O)SCC2C(=O)OCC2c2ccccc2)cc1` (stereo unspecified) had a melting point of 91 to 93 °C.
With `Cc1noc(NC(=O)C(c2ccccc2)c2ccccc2)n1`, the melting point worked out at 215 °C.
In the case of `Cc1c[nH]c(-c2ccnc(NC(=O)c3ccccc3)c2)n1`, the melting point fell in the range of 133 to 135 °C.
For `Cc1nn(-c2cc(F)c(C#N)cc2F)c(C)c1Cl` the value was 153 °C.
In the case of `CN1C(=O)CN(CCC#N)C1=O`, the melting point stood at 53 °C.
For the compound `CC(C)(NC=O)c1ccc(C(F)(F)C(F)(F)c2ccccc2)cc1`, the melting point was in the range of 116 to 117 °C.
Compound `Oc1ccc2nc(-c3cccc(O)c3O)oc2c1` returned a melting point of 256 to 258 °C.
For the compound `Cc1c(O)cccc1C(=O)NC(Cc1ccccc1)C(O)C(=O)N1CSC(C)(C)C1C(=O)NC1CCCc2ccccc21` (stereo unspecified), the melting point was in the range of 125 to 126 °C.
For `Cc1cc(C)c(CC(=O)c2ccc(C(C)C)c(OS(N)(=O)=O)c2C(C)C)c(C)c1` the value was 159 to 161 °C.
In turn, `Cn1nc(C(F)F)c(C=O)c1F` gave a melting point of 68 °C.
The compound `O=c1c(-c2ccccc2F)c(CNc2ncnc3[nH]cnc23)oc2ccccc12` yielded a melting point of 143 to 147 °C.
With `CC(=O)Nc1ccc2c3c1c(=O)c(C(=O)O)cn3CCC2`, the melting point was more than 300 °C.
For `Cc1c(C)c(N2CCN(c3ccc(OC(F)(F)F)cc3)CC2)c(C)c2c1OC(C)(C)C2` the value was 216 to 219 °C; for `Cc1nc(N2CCN(Cc3ccccc3)S2(=O)=O)sc1C(=O)NCc1cccnc1`, 140 to 142 °C.

One may read the melting point as the temperature, or range, at which the solid turns liquid.

Values taken from a melting point compilation (Tetko et al.; mined from patent text by program, amines drawn as free bases though some values may be those of a salt).
